Laboratory results as given in ChEMBL document CHEMBL3632552, “Discovery of (phenoxy-2-hydroxypropyl)piperidines as a novel class of voltage-gated sodium channel 1.7 inhibitors” (Bioorg Med Chem Lett, 2015).

How the values were obtained:
[1] = target: Sodium channel protein type 9 subunit alpha (Homo sapiens, UniProt Q15858); assay: Inhibition of human NaV1.7 by IonWorks quattro automated electrophysiology assay
[2] = target: Sodium channel protein type 1 subunit alpha (Homo sapiens, UniProt P35498); assay: Inhibition of human NaV1.1 by IonWorks quattro automated electrophysiology assay
[3] = target: Sodium channel protein type 5 subunit alpha (Homo sapiens, UniProt Q14524); assay: Inhibition of human NaV1.5 by IonWorks quattro automated electrophysiology assay
[4] = target: Sodium channel protein type 9 subunit alpha (Mus musculus, UniProt Q62205); assay: Inhibition of mouse NaV1.7 by IonWorks quattro automated electrophysiology assay
[5] = target: Sodium channel protein type 1 subunit alpha (Mus musculus, UniProt A2APX8); assay: Inhibition of mouse NaV1.1 by IonWorks quattro automated electrophysiology assay
Plasma = assay: Fraction unbound in mouse plasma; format: ADME, cell-free
[6] = Tmax in db/db mouse at 30 mg/kg, po; format: ADME, organism-based; conditions: in vivo
[7] = Cmax in db/db mouse at 30 mg/kg, po; format: ADME, organism-based; set-up: dose 30 mg/kg, route oral; conditions: in vivo
[8] = AUC in db/db mouse at 30 mg/kg, po; format: ADME, organism-based; conditions: in vivo
Mus musculus [9] = organism: Mus musculus; assay: Analgesic activity in mouse assessed as inhibition of acetic acid-induced writhing response; format: functional
Mus musculus [10] = assay: Toxicity in po dosed mouse assessed as reduction of locomotor activity; format: organism-based; conditions: in vivo
[11] = Therapeutic index, ratio of toxic ID50 in mouse to analgesic activity ED50 in mouse; format: organism-based; conditions: in vivo, read-out: TI
[12] = Tmax in CD mouse at 30 mg/kg, po; format: ADME, organism-based; conditions: in vivo
[13] = Cmax in CD mouse at 30 mg/kg, po; format: ADME, organism-based; set-up: dose 30 mg/kg, route oral; conditions: in vivo
[14] = AUC in CD mouse at 30 mg/kg, po; format: ADME, organism-based; conditions: in vivo
Mus musculus [15] = assay: Toxicity in mouse assessed as reduction of locomotor activity at 100 mg/kg, po; format: organism-based; conditions: in vivo

Chain of Sodium channel protein type 9 subunit alpha (Mus musculus, UniProt Q62205) (Q62205 whole entry): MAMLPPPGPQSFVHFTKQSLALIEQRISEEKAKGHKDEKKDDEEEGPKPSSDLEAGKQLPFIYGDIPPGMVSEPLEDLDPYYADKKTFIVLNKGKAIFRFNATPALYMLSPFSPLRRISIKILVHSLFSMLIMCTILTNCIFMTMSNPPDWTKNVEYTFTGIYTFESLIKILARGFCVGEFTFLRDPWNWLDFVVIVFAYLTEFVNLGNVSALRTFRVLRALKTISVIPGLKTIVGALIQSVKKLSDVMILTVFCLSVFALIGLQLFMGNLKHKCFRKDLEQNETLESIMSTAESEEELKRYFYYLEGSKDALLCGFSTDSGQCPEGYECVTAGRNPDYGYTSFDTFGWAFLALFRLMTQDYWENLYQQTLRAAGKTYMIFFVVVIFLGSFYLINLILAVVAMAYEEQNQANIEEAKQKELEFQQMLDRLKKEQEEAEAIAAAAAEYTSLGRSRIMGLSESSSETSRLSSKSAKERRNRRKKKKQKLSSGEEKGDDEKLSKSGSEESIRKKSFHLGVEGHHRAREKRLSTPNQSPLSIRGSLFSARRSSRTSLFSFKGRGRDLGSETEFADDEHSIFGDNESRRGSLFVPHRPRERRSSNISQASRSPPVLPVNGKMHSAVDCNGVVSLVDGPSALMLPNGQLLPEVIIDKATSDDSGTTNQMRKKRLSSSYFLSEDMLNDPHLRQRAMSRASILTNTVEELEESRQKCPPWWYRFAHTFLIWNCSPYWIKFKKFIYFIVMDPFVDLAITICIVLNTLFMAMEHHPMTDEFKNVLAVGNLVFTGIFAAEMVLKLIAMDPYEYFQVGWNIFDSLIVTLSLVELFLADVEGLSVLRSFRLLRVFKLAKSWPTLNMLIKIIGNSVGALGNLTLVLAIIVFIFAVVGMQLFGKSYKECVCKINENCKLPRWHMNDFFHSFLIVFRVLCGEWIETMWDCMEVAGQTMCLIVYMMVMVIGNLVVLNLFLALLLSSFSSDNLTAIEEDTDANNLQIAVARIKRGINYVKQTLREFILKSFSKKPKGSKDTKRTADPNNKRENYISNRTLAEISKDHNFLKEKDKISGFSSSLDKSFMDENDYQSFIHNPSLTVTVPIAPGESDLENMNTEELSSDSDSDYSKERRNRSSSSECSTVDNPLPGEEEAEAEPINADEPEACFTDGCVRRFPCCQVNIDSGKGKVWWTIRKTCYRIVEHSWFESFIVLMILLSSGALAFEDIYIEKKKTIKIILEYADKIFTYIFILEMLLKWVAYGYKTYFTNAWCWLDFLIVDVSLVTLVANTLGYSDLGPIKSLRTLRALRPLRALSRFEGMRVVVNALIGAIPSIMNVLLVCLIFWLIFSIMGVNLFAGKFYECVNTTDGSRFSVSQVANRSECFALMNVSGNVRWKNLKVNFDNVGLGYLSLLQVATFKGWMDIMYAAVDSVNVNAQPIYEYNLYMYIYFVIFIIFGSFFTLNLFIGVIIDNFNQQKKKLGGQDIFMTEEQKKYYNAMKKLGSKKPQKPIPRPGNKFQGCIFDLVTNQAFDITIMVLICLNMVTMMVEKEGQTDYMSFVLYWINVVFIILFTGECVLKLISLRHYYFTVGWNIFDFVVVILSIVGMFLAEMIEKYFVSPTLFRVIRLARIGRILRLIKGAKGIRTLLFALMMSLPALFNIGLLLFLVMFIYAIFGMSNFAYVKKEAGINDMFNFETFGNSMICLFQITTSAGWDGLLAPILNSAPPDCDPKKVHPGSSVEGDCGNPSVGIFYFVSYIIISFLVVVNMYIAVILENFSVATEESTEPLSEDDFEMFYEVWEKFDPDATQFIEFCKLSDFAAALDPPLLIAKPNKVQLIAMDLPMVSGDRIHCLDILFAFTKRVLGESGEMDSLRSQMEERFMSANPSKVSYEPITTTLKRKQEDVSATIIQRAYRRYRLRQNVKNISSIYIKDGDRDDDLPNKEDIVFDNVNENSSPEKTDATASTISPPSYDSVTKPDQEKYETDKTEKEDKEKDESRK
Chain of Sodium channel protein type 9 subunit alpha (Homo sapiens, UniProt Q15858) (Q15858 whole entry): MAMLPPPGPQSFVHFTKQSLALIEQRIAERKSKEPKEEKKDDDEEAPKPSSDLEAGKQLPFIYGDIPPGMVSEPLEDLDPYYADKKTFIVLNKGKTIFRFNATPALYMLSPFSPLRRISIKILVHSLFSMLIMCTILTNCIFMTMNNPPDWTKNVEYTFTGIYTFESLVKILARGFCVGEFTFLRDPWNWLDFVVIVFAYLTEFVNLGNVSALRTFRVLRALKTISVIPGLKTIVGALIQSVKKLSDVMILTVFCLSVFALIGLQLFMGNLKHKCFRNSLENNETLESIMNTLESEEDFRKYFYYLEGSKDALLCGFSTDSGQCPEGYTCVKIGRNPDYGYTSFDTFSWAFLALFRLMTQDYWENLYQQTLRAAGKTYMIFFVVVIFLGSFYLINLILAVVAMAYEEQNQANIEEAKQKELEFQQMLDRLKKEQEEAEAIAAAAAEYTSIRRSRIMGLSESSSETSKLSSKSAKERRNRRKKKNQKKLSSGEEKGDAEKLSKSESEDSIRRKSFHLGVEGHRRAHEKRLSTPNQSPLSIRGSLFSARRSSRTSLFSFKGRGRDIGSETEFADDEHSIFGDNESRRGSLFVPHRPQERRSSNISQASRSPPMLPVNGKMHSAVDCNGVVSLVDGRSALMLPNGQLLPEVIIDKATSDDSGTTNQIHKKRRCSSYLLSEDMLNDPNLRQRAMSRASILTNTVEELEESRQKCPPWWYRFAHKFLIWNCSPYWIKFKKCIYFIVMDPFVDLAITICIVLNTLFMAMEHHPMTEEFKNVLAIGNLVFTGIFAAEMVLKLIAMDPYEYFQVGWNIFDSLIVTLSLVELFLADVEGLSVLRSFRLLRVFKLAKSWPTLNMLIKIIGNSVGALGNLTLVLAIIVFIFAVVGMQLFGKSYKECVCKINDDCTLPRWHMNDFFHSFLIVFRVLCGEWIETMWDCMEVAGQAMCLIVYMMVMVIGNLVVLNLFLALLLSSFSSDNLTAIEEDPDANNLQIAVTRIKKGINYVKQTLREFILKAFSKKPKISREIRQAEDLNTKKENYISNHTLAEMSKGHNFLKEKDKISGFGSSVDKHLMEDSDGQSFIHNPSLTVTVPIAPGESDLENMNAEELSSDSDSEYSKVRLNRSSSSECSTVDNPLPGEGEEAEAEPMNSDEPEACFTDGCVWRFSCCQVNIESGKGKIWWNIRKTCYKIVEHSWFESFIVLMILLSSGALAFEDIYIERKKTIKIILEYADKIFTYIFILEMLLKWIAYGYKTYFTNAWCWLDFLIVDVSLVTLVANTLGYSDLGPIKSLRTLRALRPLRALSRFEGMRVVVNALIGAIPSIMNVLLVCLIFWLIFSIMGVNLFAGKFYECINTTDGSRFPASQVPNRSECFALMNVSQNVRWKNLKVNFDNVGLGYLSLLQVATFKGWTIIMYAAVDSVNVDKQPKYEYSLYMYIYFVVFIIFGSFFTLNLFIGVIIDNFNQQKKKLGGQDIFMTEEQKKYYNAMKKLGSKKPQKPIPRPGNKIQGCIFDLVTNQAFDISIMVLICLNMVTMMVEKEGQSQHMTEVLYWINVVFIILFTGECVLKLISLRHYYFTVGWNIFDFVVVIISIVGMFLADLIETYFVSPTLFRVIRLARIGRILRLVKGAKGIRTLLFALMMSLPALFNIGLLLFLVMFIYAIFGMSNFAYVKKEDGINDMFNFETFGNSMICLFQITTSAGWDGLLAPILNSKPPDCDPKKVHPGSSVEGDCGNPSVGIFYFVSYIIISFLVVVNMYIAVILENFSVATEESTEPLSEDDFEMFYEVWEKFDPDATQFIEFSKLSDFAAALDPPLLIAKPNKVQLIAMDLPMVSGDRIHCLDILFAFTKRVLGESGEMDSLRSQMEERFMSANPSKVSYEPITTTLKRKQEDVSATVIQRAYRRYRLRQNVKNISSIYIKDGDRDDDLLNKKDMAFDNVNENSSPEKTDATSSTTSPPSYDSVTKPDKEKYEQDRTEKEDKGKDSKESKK

IC50 [1]	IC50 [2]	IC50 [4]	SMILES	IC50 [3]	also measured
380 nM	0.67 µM	590 nM	O=C(c1ccccc1)c1ccc(OCC(O)CN2CCC(N3Cc4ccccc4C3=O)CC2)cc1 (stereo not given)	1.2 µM	–
1100 nM	3 µM	1500 nM	O=C1c2ccccc2CN1C1CCN(CC(O)COCc2ccc(C(F)(F)F)cc2)CC1 (stereo not given)	3 µM	–
3400 nM	8 µM	5000 nM	O=C1c2ccccc2CN1C1CCN(CC(O)COc2ccccc2)CC1 (stereo not given)	38 µM	–
1700 nM	3.3 µM	1300 nM	COc1cc(C(F)(F)F)ccc1COCC(O)CN1CCC(C(=O)Nc2ccccc2)CC1 (stereo not given)	16 µM	IC50 [5]: 2400 nM; Fu (Plasma): 4.18%; Tmax [6]: 30 min; Cmax [7]: 161 ng/mL; AUC [8]: 303 ng·h/mL; ED50 (Mus musculus [9]): 19 mg/kg; ID50 (Mus musculus [10]): 111 mg/kg; selectivity ratio [11]: 5.8
1000 nM	3.1 µM	800 nM	O=C(Nc1ccccc1)C1CCN(CC(O)COc2ccc(C(F)(F)F)cc2)CC1 (stereo not given)	3.4 µM	–
900 nM	0.92 µM	960 nM	O=C(c1ccccc1)c1cccc(OCC(O)CN2CCC(N3Cc4ccccc4C3=O)CC2)c1 (stereo not given)	3.7 µM	IC50 [5]: 690 nM; Fu (Plasma): 1.99%; Tmax [12]: 30 min; Cmax [13]: 169 ng/mL; AUC [14]: 525 ng·h/mL
–	11 µM	11000 nM	Cc1cccc(C)c1OCC(C)N.Cl (stereo not given) [MEXILETINE HYDROCHLORIDE]	–	IC50 [5]: 21000 nM; ED50 (Mus musculus [9]): 21 mg/kg; ID50 (Mus musculus [10]): 45 mg/kg
1200 nM	4.3 µM	1000 nM	O=C(c1ccccc1)c1ccccc1OCC(O)CN1CCC(C(=O)Nc2ccccc2)CC1 (stereo not given)	1.9 µM	–
500 nM	1.8 µM	100 nM	O=C1c2ccccc2CN1C1CCN(CC(O)COc2ccc(C(F)(F)F)cc2)CC1 (stereo not given)	2.8 µM	–
1400 nM	3 µM	910 nM	COc1cccc(OCC(O)CN2CCC(N3Cc4ccccc4C3=O)CC2)c1 (stereo not given)	10 µM	–
780 nM	4.4 µM	2100 nM	O=C1COc2c(cccc2C2CCN(CC(O)COc3ccccc3C(=O)c3ccccc3)CC2)N1 (stereo not given)	7 µM	–
3900 nM	> 33 µM	5000 nM	O=C1COc2c(cccc2N2CCN(CC(O)COc3ccccc3C(=O)c3ccccc3)CC2)N1 (stereo not given)	20 µM	–
1000 nM	1.2 µM	790 nM	O=C1c2ccccc2CN1C1CCN(CC(O)COc2cccc(C(F)(F)F)c2)CC1 (stereo not given)	4.4 µM	–
5300 nM	19 µM	4800 nM	COc1ccccc1OCC(O)CN1CCC(N2Cc3ccccc3C2=O)CC1 (stereo not given)	77 µM	IC50 [5]: 34000 nM; Tmax [12]: 30 min; Cmax [13]: 467 ng/mL; AUC [14]: 692 ng·h/mL; ED50 (Mus musculus [9]): 7 mg/kg; ID50 (Mus musculus [10]): 20 mg/kg; selectivity ratio [11]: 2.9
3700 nM	21 µM	2400 nM	O=C1CCc2c(cccc2N2CCN(CC(O)COc3ccccc3C(=O)c3ccccc3)CC2)N1 (stereo not given)	17 µM	–
1200 nM	1.5 µM	790 nM	COc1cc(C(F)(F)F)ccc1COCC(O)CN1CCC(N2Cc3ccccc3C2=O)CC1.O=C(O)/C=C/C(=O)O (stereo not given)	6.1 µM	IC50 [5]: 670 nM; Fu (Plasma): 5.55%; Tmax [6]: 30 min; Cmax [7]: 445 ng/mL; AUC [8]: 1910 ng·h/mL; ED50 (Mus musculus [9]): 10 mg/kg; Activity (Mus musculus [15]): Toxic
1100 nM	3.2 µM	920 nM	O=C(NC1CCN(CC(O)COc2ccccc2C(=O)c2ccccc2)CC1)c1ccccc1 (stereo not given)	4.9 µM	–
480 nM	0.91 µM	330 nM	COc1cc(C(F)(F)F)ccc1OCC(O)CN1CCC(N2Cc3ccccc3C2=O)CC1 (stereo not given)	5.6 µM	–
2800 nM	4.5 µM	4800 nM	O=C1c2ccccc2CN1C1CCN(CC(O)COc2ccccc2C(F)(F)F)CC1 (stereo not given)	7.1 µM	–
1500 nM	3.3 µM	1200 nM	O=C(c1ccccc1)c1ccccc1OCC(O)CN1CCC(N2Cc3ccccc3C2=O)CC1 (stereo not given)	24 µM	IC50 [5]: 3100 nM; Tmax [12]: 30 min; Cmax [13]: 16 ng/mL; AUC [14]: 18 ng·h/mL
1300 nM	7.1 µM	16000 nM	O=C1CCc2c(cccc2C2CCN(CC(O)COc3ccccc3C(=O)c3ccccc3)CC2)N1 (stereo not given)	18 µM	–
1800 nM	2.7 µM	1300 nM	COc1ccc(OCC(O)CN2CCC(N3Cc4ccccc4C3=O)CC2)cc1 (stereo not given)	13 µM	–
700 nM	0.8 µM	400 nM	O=C(NC1CCN(CC(O)COc2ccc(C(F)(F)F)cc2)CC1)c1ccccc1 (stereo not given)	1.1 µM	–

SMILES	IC50 [1]	IC50 [2]	IC50 [4]	IC50 [3]	also measured
O=C(c1ccccc1)c1ccccc1OCC(O)CN1CCC(N2C(=O)COc3ccccc32)CC1 (stereo not given)	1100 nM	4.8 µM	1300 nM	5.2 µM	–
O=C(c1ccccc1)c1ccccc1OCC(O)CN1CCC(n2c(=O)oc3ccccc32)CC1 (stereo not given)	1800 nM	5.4 µM	3100 nM	3.4 µM	–
O=C(c1ccccc1)c1ccccc1OCC(O)CN1CCC(N2C(=O)Cc3ccccc32)CC1 (stereo not given)	9400 nM	26 µM	5000 nM	33 µM	–
O=C(c1ccccc1)c1ccccc1OCC(O)CN1CCN(c2cccc3[nH]c(=O)oc23)CC1 (stereo not given)	24000 nM	> 33 µM	31000 nM	> 33 µM	–
